Measured values as given in the supplement of paper PMC10307832.

Assays:
BAY61-3606 + Trametinib = compound: COC1=C(C=C(C=C1)C2=CC3=NC=CN3C(=N2)NC4=C(C=CC=N4)C(=O)N)OC [BAY61-3606] + CC(=O)Nc1cccc(-n2c(=O)n(C3CC3)c(=O)c3c(Nc4ccc(I)cc4F)n(C)c(=O)c(C)c32)c1 [Trametinib] (partner 0.02 µM); assay: relative viability (nuclei count vs DMSO), 5 days (fraction); higher = more cells survive
Method in brief: (§1)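 Relative viability divides the nuclei count in treated wells by that in vehicle wells. Lung cancer cell lines were seeded in 1536-well plates, dosed by pin tool the next day, and fixed and stained after 5 days in one step with final 0.05% Triton X-100, 1% formaldehyde and 1 ug/ml Hoechst. Dosing was a single drug or a fixed anchor-drug dose plus five library-drug doses (not always all listed) in √10 steps, and values are medians of duplicate plates imaged at 4×.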

Doxorubicin + Dasatinib = compound: COc1cccc2c1C(=O)c1c(O)c3c(c(O)c1C2=O)C[C@@](O)(C(=O)CO)C[C@@H]3O[C@H]1C[C@H](N)[C@H](O)[C@H](C)O1 [Doxorubicin] + Cc1nc(Nc2ncc(C(=O)Nc3c(C)cccc3Cl)s2)cc(N2CCN(CCO)CC2)n1 [Dasatinib] (partner 0.075 µM); assay: as above
Method in brief: as §1

Cell Line | relative viability (BAY61-3606 + Trametinib; first compound 0.02 µM) | relative viability (BAY61-3606 + Trametinib; first compound 0.06325 µM) | relative viability (BAY61-3606 + Trametinib; first compound 0.2 µM) | relative viability (BAY61-3606 + Trametinib; first compound 0.6325 µM) | relative viability (BAY61-3606 + Trametinib; first compound 2 µM) | relative viability (Doxorubicin + Dasatinib; first compound 0.001 µM) | relative viability (Doxorubicin + Dasatinib; first compound 0.003162 µM) | relative viability (Doxorubicin + Dasatinib; first compound 0.01 µM) | relative viability (Doxorubicin + Dasatinib; first compound 0.03162 µM) | relative viability (Doxorubicin + Dasatinib; first compound 0.1 µM)
NCI-H1993 | 0.498 | 0.507 | 0.544 | 0.538 | 0.518 | 0.714 | 0.6 | 0.512 | 0.479 | 0.427
NCI-H2009 | 0.318 | 0.229 | 0.378 | 0.303 | 0.206 | 0.308 | 0.319 | 0.296 | 0.272 | 0.235
NCI-H23 | 0.437 | 0.347 | 0.348 | 0.393 | 0.372 |  | 1.01 | 0.88 | 0.668 | 0.547
NCI-H2405 | 0.637 | 0.559 | 0.711 | 0.728 | 0.518 | 0.187 | 0.208 | 0.243 | 0.207 | 0.177
HCC-44 | 1.04 | 1.09 | 1 | 1.07 | 1.2 |  |  |  |  | 
EMC-BAC-2 | 0.938 | 0.883 | 0.944 | 1.17 | 1.05 | 0.357 | 0.316 | 0.263 | 0.171 | 0.12
NCI-H322M | 0.533 | 0.522 | 0.542 | 0.499 | 0.486 | 0.29 | 0.237 | 0.27 | 0.275 | 0.272
SK-MES-1 | 0.619 | 0.541 | 0.518 | 0.579 | 0.503 | 0.458 | 0.396 | 0.325 | 0.141 | 0.128
NCI-H2170 | 0.859 | 0.879 | 0.907 | 0.916 | 0.762 | 0.625 | 0.687 | 0.455 | 0.436 | 0.553
NCI-H1648 | 0.47 | 0.466 | 0.546 |  | 0.512 |  |  |  |  | 
EPLC-272H | 0.309 | 0.275 | 0.281 | 0.294 | 0.263 | 0.41 | 0.418 | 0.371 | 0.417 | 0.343
NCI-H1975 | 0.409 | 0.295 | 0.354 | 0.325 | 0.254 | 0.406 | 0.356 | 0.331 | 0.304 | 0.158
NCI-H727 | 0.392 | 0.382 | 0.423 | 0.42 | 0.387 | 0.271 | 0.46 | 0.305 | 0.368 | 0.329
NCI-H520 | 0.685 | 0.704 | 0.751 | 0.85 | 0.644 | 0.234 | 0.218 | 0.202 | 0.151 | 0.183
NCI-H1355 | 0.424 | 0.447 | 0.409 | 0.46 | 0.345 | 0.723 | 0.789 | 0.722 | 0.706 | 0.764
NCI-H2347 | 0.287 | 0.332 | 0.285 | 0.296 | 0.244 | 0.271 | 0.322 | 0.327 | 0.283 | 0.307
NCI-H2342 | 0.899 | 0.912 | 0.855 | 0.712 | 0.953 | 0.308 | 0.317 | 0.323 | 0.298 | 0.326

Cell Line | relative viability (BAY61-3606 + Trametinib; first compound 0.02 µM) | relative viability (BAY61-3606 + Trametinib; first compound 0.06325 µM) | relative viability (BAY61-3606 + Trametinib; first compound 0.2 µM) | relative viability (BAY61-3606 + Trametinib; first compound 0.6325 µM) | relative viability (BAY61-3606 + Trametinib; first compound 2 µM) | relative viability (Doxorubicin + Dasatinib; first compound 0.001 µM) | relative viability (Doxorubicin + Dasatinib; first compound 0.003162 µM) | relative viability (Doxorubicin + Dasatinib; first compound 0.01 µM) | relative viability (Doxorubicin + Dasatinib; first compound 0.03162 µM) | relative viability (Doxorubicin + Dasatinib; first compound 0.1 µM)
LC-2-ad | 0.911 | 0.961 | 0.979 | 0.942 | 0.902 | 0.691 | 0.602 | 0.489 | 0.209 | 0.161
NCI-H838 | 0.54 | 0.496 | 0.547 | 0.575 | 0.362 | 0.292 | 0.284 | 0.228 | 0.307 | 0.277
NCI-H1793 | 0.445 | 0.414 | 0.449 | 0.437 | 0.478 |  | 0.511 | 0.374 | 0.33 | 0.413
NCI-H358 | 0.137 | 0.158 | 0.143 | 0.146 | 0.0995 | 0.175 | 0.161 | 0.159 | 0.0904 | 0.0827
NCI-H2087 | 0.228 | 0.196 | 0.202 | 0.178 | 0.2 |  | 0.844 | 0.769 | 0.475 | 0.222
NCI-H596 | 0.879 | 0.793 | 0.701 | 1.01 | 0.696 | 0.663 | 0.621 | 0.681 | 0.506 | 0.579
RERF-LC-KJ | 0.868 | 0.846 | 0.901 | 0.866 | 0.676 | 0.85 | 0.83 | 0.706 | 0.318 | 0.278
NCI-H647 | 0.479 | 0.496 | 0.413 | 0.551 | 0.319 | 0.186 | 0.212 | 0.166 | 0.152 | 0.0503
LU99A | 0.485 | 0.57 | 0.534 | 0.503 | 0.47 | 0.359 | 0.526 | 0.527 | 0.422 | 0.361
NCI-H460 | 0.153 | 0.173 | 0.134 | 0.117 | 0.104 | 0.507 | 0.427 | 0.405 | 0.171 | 0.0701
NCI-H650 | 1.09 | 1.05 | 0.922 | 0.93 | 0.838 | 0.432 | 0.473 | 0.503 | 0.461 | 0.355
PC-14 | 0.732 | 0.887 | 0.732 | 1.01 | 0.607 | 0.28 | 0.184 | 0.22 | 0.0983 | 0.0282
PC-3 [JPC-3] | 0.772 | 0.668 | 0.741 | 0.726 | 0.654 | 1.02 | 0.975 | 0.935 | 0.946 | 0.97
NCI-H1944 | 0.469 | 0.392 | 0.405 | 0.369 | 0.299 | 0.18 | 0.206 | 0.216 | 0.165 | 0.174
NCI-H1755 | 0.768 | 0.853 | 0.792 | 0.769 | 0.762 | 0.444 | 0.288 | 0.437 | 0.434 | 0.554
H3255 | 0.688 | 0.538 | 0.598 | 0.715 | 0.587 | 0.359 | 0.388 | 0.436 | 0.333 | 0.33
